Reference: patent publication US4416891A, “Ester of 6-[(hexahydro-1H-azepin-1-yl)methyleneamino]penicillanic acid, and its use as antibacterial agent” (priority 1981, dated 1983)
Counter-ions that a name gives are not always drawn. Like-named read-outs stand apart in the source and are kept apart here.

Columns and labels:
[1] = Stability in an artificial gastric juice (bioautography); format: in vitro ADME; settings: pH about 1.2, 37° C.
Method: Stability in an artificial gastric juice
(5-methyl-2-oxo-1,3-dioxolen-4-yl)methyl 6-[(hexahydro-1H-azepin-1-yl)methleneamino]penicillanate hydrochloride monohydrate [compound (I).HCl.H2 O]
(§1) (b) Experimental procedure
A solution of 2 mg of compound (I).HCl.H2 O in 0.2 ml of dimethyl sulfoxide was added to 3.8 ml of the artificial gastric juice described in The Pharmacopoeia of Japan, 10th edition (having a pH of about 1.2 and prepared by adding 24.0 ml of 10% HCl to 2.0 g of sodium chloride and adding water to adjust the total amount to 1000 ml). The solution was maintained at 37° C., and bioautographed as shown below after the lapse of 10 minutes, 30 minutes, and 50 minutes, respectively.
(i) The test solution was spotted on a cellulose plate [Cellulose F (Art 5718 supplied by Merck & Co.)] for thin-layer chromatography, and developed with the upper layer of a mixture of n-butanol, ethanol and water in a ratio of 4:1:5. The plate was dried in the air, and a 10% aqueous solution of mouse serum was sprayed onto the plate. […]
(iv) After the cultivation, the position (Rf value) of an inhibitory zone on the plate against E. coli NIHJ was determined. From this Rf value and Rf values of compound (I).HCl.H2 O and Mecillinam (X) separately determined under the same conditions as in (i) to (iii) above, the compound in the test solution was identified. […]

[2] = Stability in an artificial intestinal juice (bioautography); format: in vitro ADME; settings: pH about 6.8, 37° C.
Method: Stability in an artificial intestinal juice
as §1
A test solution was prepared in the same way as in Test Example 1, (b), (1) except that the artificial intestinal juice described in The Pharmacopoeia of Japan, 10th edition (having a pH of about 6.8 and prepared by adding water to 250 ml of a 0.2 M aqueous solution of potassium dihydrogen phosphate and 118 ml of a 0.2 N aqueous solution of sodium hydroxide to form a solution having a total volume of 1000 ml) was used instead of the artificial gastric juice.
Performed in the same way as in Test Example 1, (b), (2).

[3] = Stability in mouse serum (bioautography); format: in vitro ADME; settings: 40% mouse serum, 37° C., pH 7.4 phosphate buffer
Method: as §1
4 ml of mouse serum was added to 5.6 ml of 0.1 M phosphate buffer (pH 7.4), and then a portion (0.4 ml) of a solution of 20 mg of compound (I).HCl.H2 O in 1 ml of dimethyl sulfoxide was added. The solution was kept at 37° C. for 10 minutes to form a test solution.
The test solution obtained in (1) above was subjected to the same operation as in Example 1, (b), (2).

[4] = tested on: Escherichia coli NIHJ; experiment: Antibacterial activity in oral administration to mice (inhibitory zone of serum samples); format: in vivo; settings: male ddY mice, dose corresponding to 50 mg/kg of Mecillinam, average of n=4, read-out: Diameter of the inhibitory zone
Method: Antibacterial activity in oral administration to mice
Compound (I).HCl.H2 O and Pivmecillinam.HCl.
as §1
Male ddY mice (6 weeks old, body weight 28±2 g) were used. They were caused to fast for 16 hours before the administration of the test compounds.
An aqueous solution (5 mg/ml) of each of the test compounds was prepared, and orally administered to mice (five per group) in a dose corresponding to 50 mg/kg of Mecillinam.
Blood samples were taken individually from five mice in each group at 30, 60 and 90 minutes after the administration of each compound. The blood samples were immediately centrifuged individually at 3,000 rpm for 15 minutes, and serum samples obtained (each in an amount of 0.2 ml) were combined to give 1 ml of serum for assaying.
(4) Measurement of antibacterial activity
0.2 ml of a suspension of Escherichia coli NIHJ as test organism was added to 5 ml of nutrient agar kept at about 48° C. to give an agar plate. The assaying serum prepared in (3) above was infiltrated into a paper disc (a thick type with a diameter of 8 mm, supplied by Toyo Filter Paper Co., Ltd.), and the paper disc was placed on the agar plate (n=4). It was maintained at 37° C. for 18 hours, and the diameter of the resulting inhibitory zone was measured with respect to each of the serum samples.
The diameter of the inhibitory zone (an average of n=4) measured with respect to each of the serum samples was as shown in Table 1.

[5] = Toxicity test: acute toxicity (LD50) in oral administration; settings: mouse, in vivo, male ddY-strain mice, five per group
Source text: The acute toxicity (LD50) of compound (I).HCl.H2 O and Pivmecillinam.HCl in oral administration was examined by using male ddY-strain mice (body weight 22 to 25 g; five per group).

[6] = tested on: Gram-negative bacteria, especially Escherichia coli and Klebsiella pneumoniae; settings: compared with Gram-positive bacteria; cited from earlier work
[7] = cited from earlier work
[8] = oral, man, 400 mg; cited from earlier work
[9] = 0.5 h, blood letting time 30 min
[10] = in Mus musculus, blood letting time 90 min

Compound	period of stability in the artificial gastric juice [1]	stability in the artificial intestinal juice [2]	transformation to Mecillinam (X) in mouse serum [3]	zone of inhibition at 50 mg/kg [4, 9] [mm]	zone of inhibition at 50 mg/kg ([4]; 1 h, blood letting time 60 min) [mm]	zone of inhibition at 50 mg/kg [4, 10] [mm]	LD50 [5] [mg/kg]	antibacterial spectrum [6]	absorbability or bioavailability in oral administration [7]	urinary excretion after the 6 hour period [8] [%]
Cc1oc(=O)oc1COC(=O)[C@@H]1N2C(=O)[C@@H](N=CN3CCCCCC3)[C@H]2SC1(C)C [Compound (I).HCl.H2 O, (5-methyl-2-oxo-1,3-dioxolen-4-yl)methyl 6-[(hexahydro-1H-azepin-1-yl)methleneamino]penicillanate hydrochloride monohydrate]	more than 50 minutes	stable in the artificial intestinal juice	transformed to Mecillinam (X) in 40% mouse serum within ten minutes at 37 °C	23.3	20	17.2	5210	–	–	–
CC1(C)S[C@@H]2[C@H](N=CN3CCCCCC3)C(=O)N2[C@H]1C(=O)O [Mecillinam (X), 6-[(hexahydro-1H-azepin-1yl)methyleneamino]penicillanic acid]	–	–	–	–	–	–	–	stronger activity against Gram-negative bacteria, especially Escherichia coli and Klebsiella pneumoniae, than against Gram-positive bacteria	low	–
CC(C)(C)C(=O)OCOC(=O)[C@@H]1N2C(=O)[C@@H](N=CN3CCCCCC3)[C@H]2SC1(C)C [Pivmecillinam (X')]	–	–	–	–	–	–	–	–	–	45
CC(C)(C)C(=O)OCOC(=O)[C@@H]1N2C(=O)[C@@H](N=CN3CCCCCC3)[C@H]2SC1(C)C [Pivmecillinam.HCl]	–	–	–	23.2	20.8	18	3840	–	–	–
